From doi:10.1101/2023.11.24.568596v1 (biorxiv, 2023)

Columns and labels:
Settings in all cases: binder
BIKE = BIKE (Homo sapiens, UniProt Q9NSY1)
BRAF = BRAF (Homo sapiens, UniProt P15056)
CDKL1 = CDKL1 (Homo sapiens, UniProt Q00532)
CHK2 = CHK2 (Homo sapiens, UniProt O96017)
CK2a2 = CK2a2 (Homo sapiens, UniProt P19784)
CLK3 = CLK3 (Homo sapiens, UniProt P49761)
CaMK2d = CaMK2d (Homo sapiens, UniProt Q13557)
EphA7 = EphA7 (Homo sapiens, UniProt Q15375)
MER = target: T1, MER (Homo sapiens, UniProt Q12866)
T1 sequence (Q12866 1-999): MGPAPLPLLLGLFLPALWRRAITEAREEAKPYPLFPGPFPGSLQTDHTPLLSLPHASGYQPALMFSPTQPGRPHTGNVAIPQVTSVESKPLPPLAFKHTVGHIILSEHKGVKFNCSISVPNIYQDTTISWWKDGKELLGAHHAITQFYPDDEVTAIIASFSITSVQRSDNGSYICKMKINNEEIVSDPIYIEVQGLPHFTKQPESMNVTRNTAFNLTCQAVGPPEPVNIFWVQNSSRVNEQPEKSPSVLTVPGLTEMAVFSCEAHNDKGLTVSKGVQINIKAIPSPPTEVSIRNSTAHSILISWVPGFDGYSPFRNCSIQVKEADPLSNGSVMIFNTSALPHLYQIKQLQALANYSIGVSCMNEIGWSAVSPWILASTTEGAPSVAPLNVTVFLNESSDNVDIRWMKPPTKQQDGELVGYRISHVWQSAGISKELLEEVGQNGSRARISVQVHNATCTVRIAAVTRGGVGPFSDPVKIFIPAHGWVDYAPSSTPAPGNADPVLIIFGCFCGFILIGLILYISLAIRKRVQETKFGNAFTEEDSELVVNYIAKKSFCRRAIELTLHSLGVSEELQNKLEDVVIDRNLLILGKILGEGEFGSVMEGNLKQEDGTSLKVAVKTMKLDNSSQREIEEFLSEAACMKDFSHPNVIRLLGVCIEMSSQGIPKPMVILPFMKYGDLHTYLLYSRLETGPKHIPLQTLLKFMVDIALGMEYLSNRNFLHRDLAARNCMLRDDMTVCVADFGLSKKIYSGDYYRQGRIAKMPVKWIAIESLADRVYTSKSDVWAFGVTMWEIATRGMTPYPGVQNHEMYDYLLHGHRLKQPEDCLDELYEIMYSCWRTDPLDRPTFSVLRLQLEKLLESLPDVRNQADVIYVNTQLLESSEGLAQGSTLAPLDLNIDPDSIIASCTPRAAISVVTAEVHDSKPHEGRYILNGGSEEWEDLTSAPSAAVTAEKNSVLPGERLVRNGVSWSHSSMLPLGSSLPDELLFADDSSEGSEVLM

MST2 = target: T2, MST2 (Homo sapiens, UniProt Q13188)
T2 sequence (Q13188 1-491): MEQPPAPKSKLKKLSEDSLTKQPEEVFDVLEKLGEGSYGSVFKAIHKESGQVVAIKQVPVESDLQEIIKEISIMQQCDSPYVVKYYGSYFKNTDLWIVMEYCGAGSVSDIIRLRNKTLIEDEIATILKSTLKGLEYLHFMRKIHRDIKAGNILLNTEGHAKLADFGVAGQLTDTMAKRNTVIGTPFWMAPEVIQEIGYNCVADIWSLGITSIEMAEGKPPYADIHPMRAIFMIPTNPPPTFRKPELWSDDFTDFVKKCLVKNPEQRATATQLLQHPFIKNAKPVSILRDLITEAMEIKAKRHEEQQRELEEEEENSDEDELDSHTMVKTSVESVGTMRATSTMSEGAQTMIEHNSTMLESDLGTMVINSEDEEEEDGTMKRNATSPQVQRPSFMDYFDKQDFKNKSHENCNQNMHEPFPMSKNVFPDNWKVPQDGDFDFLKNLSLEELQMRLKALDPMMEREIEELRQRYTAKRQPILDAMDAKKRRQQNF

MST4 = MST4 (Homo sapiens, UniProt Q9P289)
PCTAIRE1 = PCTAIRE1 (Homo sapiens, UniProt Q00536)
Sequence of PCTAIRE1 (Q00536 whole entry): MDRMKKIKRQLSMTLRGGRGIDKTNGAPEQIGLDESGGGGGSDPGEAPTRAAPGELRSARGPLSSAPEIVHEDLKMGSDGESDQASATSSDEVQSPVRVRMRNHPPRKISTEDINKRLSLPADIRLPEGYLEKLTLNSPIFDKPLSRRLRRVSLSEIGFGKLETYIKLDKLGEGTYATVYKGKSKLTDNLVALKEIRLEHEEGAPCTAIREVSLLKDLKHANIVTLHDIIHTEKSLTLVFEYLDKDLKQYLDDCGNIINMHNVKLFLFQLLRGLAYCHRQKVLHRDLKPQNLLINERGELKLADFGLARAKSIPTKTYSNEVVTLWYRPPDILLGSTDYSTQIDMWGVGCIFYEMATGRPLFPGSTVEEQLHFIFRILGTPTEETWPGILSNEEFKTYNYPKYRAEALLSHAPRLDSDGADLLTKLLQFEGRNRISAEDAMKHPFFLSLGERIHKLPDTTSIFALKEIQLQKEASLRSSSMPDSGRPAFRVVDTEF

Sequence of BIKE (Q9NSY1 whole entry): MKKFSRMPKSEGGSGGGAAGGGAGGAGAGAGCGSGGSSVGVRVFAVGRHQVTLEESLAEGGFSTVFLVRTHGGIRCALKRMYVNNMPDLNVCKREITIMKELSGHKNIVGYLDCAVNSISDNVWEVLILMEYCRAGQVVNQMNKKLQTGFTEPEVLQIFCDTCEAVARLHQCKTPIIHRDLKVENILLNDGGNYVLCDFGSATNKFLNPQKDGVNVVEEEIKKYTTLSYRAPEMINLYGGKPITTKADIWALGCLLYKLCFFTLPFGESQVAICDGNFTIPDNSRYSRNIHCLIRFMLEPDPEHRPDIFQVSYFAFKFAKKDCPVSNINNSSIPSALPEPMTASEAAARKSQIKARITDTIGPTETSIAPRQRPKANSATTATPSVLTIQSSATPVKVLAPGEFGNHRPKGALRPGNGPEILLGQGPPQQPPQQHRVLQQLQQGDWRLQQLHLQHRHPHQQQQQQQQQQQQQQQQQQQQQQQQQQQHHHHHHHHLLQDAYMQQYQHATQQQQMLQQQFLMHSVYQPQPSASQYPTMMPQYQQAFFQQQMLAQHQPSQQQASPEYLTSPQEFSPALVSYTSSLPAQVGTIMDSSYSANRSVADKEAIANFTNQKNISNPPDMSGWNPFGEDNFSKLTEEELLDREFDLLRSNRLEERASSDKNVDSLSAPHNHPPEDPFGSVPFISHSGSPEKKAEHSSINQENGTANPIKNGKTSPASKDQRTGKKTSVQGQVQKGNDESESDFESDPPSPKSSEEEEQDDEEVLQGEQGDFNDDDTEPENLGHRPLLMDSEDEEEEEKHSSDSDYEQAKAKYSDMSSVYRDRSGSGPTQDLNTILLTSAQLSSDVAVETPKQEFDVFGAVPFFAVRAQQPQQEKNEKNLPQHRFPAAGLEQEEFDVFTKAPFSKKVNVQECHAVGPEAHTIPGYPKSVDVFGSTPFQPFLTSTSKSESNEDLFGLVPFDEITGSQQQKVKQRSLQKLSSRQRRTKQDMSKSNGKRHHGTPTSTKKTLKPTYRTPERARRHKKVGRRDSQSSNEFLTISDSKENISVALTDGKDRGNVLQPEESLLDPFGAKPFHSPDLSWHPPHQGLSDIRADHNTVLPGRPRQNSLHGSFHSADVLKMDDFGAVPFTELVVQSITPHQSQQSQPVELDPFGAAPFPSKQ
Sequence of CHK2 (O96017 whole entry): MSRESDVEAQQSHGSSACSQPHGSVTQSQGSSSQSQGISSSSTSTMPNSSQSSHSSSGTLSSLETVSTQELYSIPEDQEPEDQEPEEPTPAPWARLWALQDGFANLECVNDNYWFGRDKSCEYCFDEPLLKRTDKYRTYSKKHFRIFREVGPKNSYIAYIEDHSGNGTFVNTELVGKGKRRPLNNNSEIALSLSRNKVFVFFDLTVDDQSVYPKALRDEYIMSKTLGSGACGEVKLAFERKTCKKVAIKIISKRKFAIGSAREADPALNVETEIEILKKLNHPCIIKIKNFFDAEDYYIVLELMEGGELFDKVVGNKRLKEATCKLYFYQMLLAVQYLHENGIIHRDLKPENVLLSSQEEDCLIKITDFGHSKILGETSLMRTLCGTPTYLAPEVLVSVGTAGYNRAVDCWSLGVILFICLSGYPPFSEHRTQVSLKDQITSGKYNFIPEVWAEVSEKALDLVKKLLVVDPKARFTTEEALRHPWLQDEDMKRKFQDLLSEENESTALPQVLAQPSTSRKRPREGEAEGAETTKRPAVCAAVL
Sequence of BRAF (P15056 whole entry): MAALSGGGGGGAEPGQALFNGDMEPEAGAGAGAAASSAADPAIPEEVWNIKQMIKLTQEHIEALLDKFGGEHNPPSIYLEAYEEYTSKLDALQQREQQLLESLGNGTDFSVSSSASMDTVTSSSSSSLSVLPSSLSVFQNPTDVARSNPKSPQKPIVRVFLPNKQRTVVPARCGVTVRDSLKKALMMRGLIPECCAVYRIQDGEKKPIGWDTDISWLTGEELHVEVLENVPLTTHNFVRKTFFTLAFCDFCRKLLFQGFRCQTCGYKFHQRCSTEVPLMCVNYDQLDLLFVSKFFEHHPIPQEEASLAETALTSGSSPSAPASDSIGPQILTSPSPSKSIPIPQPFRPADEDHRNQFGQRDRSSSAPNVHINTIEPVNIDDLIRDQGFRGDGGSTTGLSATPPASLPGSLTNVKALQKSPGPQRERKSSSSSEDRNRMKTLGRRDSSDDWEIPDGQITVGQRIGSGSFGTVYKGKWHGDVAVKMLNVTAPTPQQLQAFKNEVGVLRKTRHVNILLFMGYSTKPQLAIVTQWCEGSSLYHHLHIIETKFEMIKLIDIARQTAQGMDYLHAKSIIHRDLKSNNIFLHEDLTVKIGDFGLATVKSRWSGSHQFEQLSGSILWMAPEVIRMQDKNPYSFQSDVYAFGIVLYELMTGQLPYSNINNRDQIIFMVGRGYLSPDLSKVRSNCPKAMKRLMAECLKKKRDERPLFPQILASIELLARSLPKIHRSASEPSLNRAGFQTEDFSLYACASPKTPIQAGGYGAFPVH
Sequence of EphA7 (Q15375 whole entry): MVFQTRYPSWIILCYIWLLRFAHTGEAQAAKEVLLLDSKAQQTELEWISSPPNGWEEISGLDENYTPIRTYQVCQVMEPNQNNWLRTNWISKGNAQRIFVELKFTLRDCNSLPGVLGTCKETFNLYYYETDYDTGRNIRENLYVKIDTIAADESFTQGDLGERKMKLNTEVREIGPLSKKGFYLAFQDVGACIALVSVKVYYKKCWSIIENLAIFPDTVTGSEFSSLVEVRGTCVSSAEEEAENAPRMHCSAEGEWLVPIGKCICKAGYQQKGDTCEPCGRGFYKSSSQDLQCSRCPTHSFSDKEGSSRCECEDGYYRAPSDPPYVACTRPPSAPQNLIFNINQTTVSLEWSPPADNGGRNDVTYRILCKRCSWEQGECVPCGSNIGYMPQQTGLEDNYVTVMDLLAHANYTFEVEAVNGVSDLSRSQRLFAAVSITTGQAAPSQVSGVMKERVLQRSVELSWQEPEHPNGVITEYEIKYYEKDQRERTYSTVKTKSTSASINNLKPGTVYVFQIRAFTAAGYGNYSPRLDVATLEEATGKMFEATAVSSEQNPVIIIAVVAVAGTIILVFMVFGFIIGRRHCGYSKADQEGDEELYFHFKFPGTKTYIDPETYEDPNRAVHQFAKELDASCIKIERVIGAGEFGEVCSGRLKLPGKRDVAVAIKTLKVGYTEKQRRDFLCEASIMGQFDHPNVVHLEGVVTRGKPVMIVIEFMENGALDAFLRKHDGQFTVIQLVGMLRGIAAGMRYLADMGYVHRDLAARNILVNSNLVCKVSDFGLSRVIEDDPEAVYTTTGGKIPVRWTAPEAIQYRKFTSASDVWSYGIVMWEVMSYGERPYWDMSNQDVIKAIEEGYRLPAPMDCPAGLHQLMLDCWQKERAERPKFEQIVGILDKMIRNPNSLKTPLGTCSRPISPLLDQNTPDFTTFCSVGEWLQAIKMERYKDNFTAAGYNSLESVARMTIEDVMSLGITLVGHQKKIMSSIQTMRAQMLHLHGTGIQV
Sequence of CLK3 (P49761 whole entry): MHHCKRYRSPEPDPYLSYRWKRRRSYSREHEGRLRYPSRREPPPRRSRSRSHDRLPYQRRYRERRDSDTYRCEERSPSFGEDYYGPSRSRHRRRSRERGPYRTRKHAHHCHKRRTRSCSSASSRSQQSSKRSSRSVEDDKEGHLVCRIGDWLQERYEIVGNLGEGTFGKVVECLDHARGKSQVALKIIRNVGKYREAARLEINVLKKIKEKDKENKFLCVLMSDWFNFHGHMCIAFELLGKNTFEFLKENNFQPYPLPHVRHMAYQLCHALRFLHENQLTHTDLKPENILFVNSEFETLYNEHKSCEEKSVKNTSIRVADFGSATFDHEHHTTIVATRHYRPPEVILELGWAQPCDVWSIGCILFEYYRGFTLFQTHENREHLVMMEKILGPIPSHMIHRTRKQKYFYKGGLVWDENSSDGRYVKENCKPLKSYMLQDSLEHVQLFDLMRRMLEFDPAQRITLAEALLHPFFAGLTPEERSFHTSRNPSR
Sequence of CK2a2 (P19784 whole entry): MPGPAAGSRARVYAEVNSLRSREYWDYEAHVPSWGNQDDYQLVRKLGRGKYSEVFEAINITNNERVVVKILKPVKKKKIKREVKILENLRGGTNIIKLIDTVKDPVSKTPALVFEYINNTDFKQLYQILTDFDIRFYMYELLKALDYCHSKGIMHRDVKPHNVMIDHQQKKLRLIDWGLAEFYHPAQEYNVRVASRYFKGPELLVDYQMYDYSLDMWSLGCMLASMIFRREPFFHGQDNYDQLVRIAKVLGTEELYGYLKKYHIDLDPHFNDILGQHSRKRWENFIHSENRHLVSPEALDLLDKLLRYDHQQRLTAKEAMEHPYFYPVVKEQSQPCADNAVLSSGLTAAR

Cc1cccc(-c2ccc(-c3cc4cnc(NCCCc5ccc(N)cc5)nc4n(CCCCN)c3=O)c(Cl)c2)n1 [compound 25, 8-(4-Aminobutyl)-2-((3-(4-aminophenyl)propyl)amino)-6-(2-chloro-4-(6-methylpyridin-2-yl)phenyl)pyrido[2,3-d]pyrimidin-7(8H)-one]
ΔTm 25 (BIKE): 1.8 °C | ΔTm 25 (BRAF): 5.2 °C | ΔTm 25 (CDKL1): 2.1 °C | ΔTm 25 (CHK2): 8.5 °C | ΔTm 25 (CK2a2): -1.9 °C | ΔTm 25 (CLK3): -0.3 °C | ΔTm 25 (CaMK2d): -0.2 °C | ΔTm 25 (EphA7): 5.1 °C | ΔTm 25 (MER): 1.6 °C | ΔTm 25 (MST2): 9.4 °C | ΔTm 25 (MST4): 9.6 °C | ΔTm 25 (PCTAIRE1): 4.5 °C

Cc1cccc(-c2ccc(-c3cc4cnc(NC(CO)CO)nc4n(CCCCN)c3=O)c(Cl)c2)n1 [compound 24, 8-(4-Aminobutyl)-6-(2-chloro-4-(6-methylpyridin-2-yl)phenyl)-2-((1,3-dihydroxypropan-2-yl)amino)pyrido[2,3-d]pyrimidin-7(8H)-one]
ΔTm MR24 (24) (BIKE): -0.4 °C | ΔTm MR24 (24) (BRAF): 1.2 °C | ΔTm MR24 (24) (CDKL1): 0.9 °C | ΔTm MR24 (24) (CHK2): 2.0 °C | ΔTm MR24 (24) (CK2a2): -2.0 °C | ΔTm MR24 (24) (CLK3): -0.2 °C | ΔTm MR24 (24) (CaMK2d): -0.2 °C | ΔTm MR24 (24) (EphA7): 0.3 °C | ΔTm MR24 (24) (MER): -0.7 °C | ΔTm MR24 (24) (MST2): 4.9 °C | ΔTm MR24 (24) (MST4): 9.1 °C | ΔTm MR24 (24) (PCTAIRE1): 1.7 °C

CNc1ncc2cc(-c3ccc(-c4cccc(C)n4)cc3Cl)c(=O)n(C[C@H]3CC[C@H](N)CC3)c2n1 [compound 23, 23]
ΔTm 23 (BIKE): 6.9 °C | ΔTm 23 (BRAF): 6.2 °C | ΔTm 23 (CDKL1): 0.1 °C | ΔTm 23 (CHK2): 4.6 °C | ΔTm 23 (CK2a2): -0.9 °C | ΔTm 23 (CLK3): 1.0 °C | ΔTm 23 (CaMK2d): -0.2 °C | ΔTm 23 (EphA7): 10.4 °C | ΔTm 23 (MER): 3.1 °C | ΔTm 23 (MST2): 10.8 °C | ΔTm 23 (MST4): 8.2 °C | ΔTm 23 (PCTAIRE1): 4.4 °C

Cc1cccc(-c2ccc(-c3cc4cnc(NCCCN5CCOCC5)nc4n(CCCCN)c3=O)c(Cl)c2)n1 [compound 26, MR26]
ΔTm MR26 (26) (BIKE): 0.7 °C | ΔTm MR26 (26) (BRAF): 1.7 °C | ΔTm MR26 (26) (CDKL1): 0.5 °C | ΔTm MR26 (26) (CHK2): 3.3 °C | ΔTm MR26 (26) (CK2a2): -1.0 °C | ΔTm MR26 (26) (CLK3): -0.4 °C | ΔTm MR26 (26) (CaMK2d): -0.1 °C | ΔTm MR26 (26) (EphA7): 2.7 °C | ΔTm MR26 (26) (MER): 1.0 °C | ΔTm MR26 (26) (MST2): 7.7 °C | ΔTm MR26 (26) (MST4): 11.2 °C | ΔTm MR26 (26) (PCTAIRE1): 1.8 °C

CNc1ncc2cc(-c3ccc(-c4cccc(C)n4)cc3Cl)c(=O)n(CCC3CCNCC3)c2n1 [compound 22, 6-(2-Chloro-4-(6-methylpyridin-2-yl)phenyl)-2-(methylamino)-8-(2-(piperidin-4-yl)ethyl)pyrido[2,3-d]pyrimidin-7(8H)-one]
ΔTm 22 (BIKE): 7.1 °C | ΔTm 22 (BRAF): 6.3 °C | ΔTm 22 (CDKL1): 0.4 °C | ΔTm 22 (CHK2): 3.0 °C | ΔTm 22 (CK2a2): -1.4 °C | ΔTm 22 (CLK3): -0.4 °C | ΔTm 22 (CaMK2d): 0.0 °C | ΔTm 22 (EphA7): 7.7 °C | ΔTm 22 (MER): 2.6 °C | ΔTm 22 (MST2): 8.0 °C | ΔTm 22 (MST4): 7.8 °C | ΔTm 22 (PCTAIRE1): 3.0 °C

CNc1ncc2cc(-c3ccc(-c4cccc(C)n4)cc3Cl)c(=O)n(CCCCN)c2n1 [compound 20, MRLW5]
ΔTm MRLW5 (20) (BIKE): 3.7 °C | ΔTm MRLW5 (20) (BRAF): 4.1 °C | ΔTm MRLW5 (20) (CDKL1): -0.1 °C | ΔTm MRLW5 (20) (CHK2): 2.8 °C | ΔTm MRLW5 (20) (CK2a2): -0.6 °C | ΔTm MRLW5 (20) (CLK3): 0.2 °C | ΔTm MRLW5 (20) (CaMK2d): 0.1 °C | ΔTm MRLW5 (20) (EphA7): 7.7 °C | ΔTm MRLW5 (20) (MER): 2.5 °C | ΔTm MRLW5 (20) (MST2): 7.9 °C | ΔTm MRLW5 (20) (MST4): 11.4 °C | ΔTm MRLW5 (20) (PCTAIRE1): 2.3 °C
